The text below walks through data of patent publication US20050020544A1, “Bicyclic CB2 cannabinoid receptor ligands” (priority 2002, published 2005).

The test system of one data set is Adult female BALB/c mice. The format is in vivo, mouse. Conditions: i.p. twice. The protocol:
Adult female BALB/c mice (20 g average body weight, Harlan, Israel) were sensitized on day 0 and day 1 by application of 30 μl of 0.15% Dinitrofluorobenzene (DNFB) diluted in acetone on the shaved skin of the abdomen. On day 6 the animals were challenged by application of 10 μl of DNFB in acetone on one ear. The contralateral ear was not challenged but received the application of 10 μl acetone. Test compounds were administered at increasing doses from 0 to 15 mg/kg i.p. twice, the first injection was immediately after DNFB challenge (on day 6) and the second injection was 16 hours post challenge (on day 7). Each treatment group comprised at least 7 animals. Dexamethasone (DXM) was used as positive control. Ear thickness was determined (in 0.01 mm units) 24 hours after challenge (and 6 hours after second treatment on day 7) using a dial thickness gauge (Mitutoyo, Japan).
Results are analyzed as ear thickness of DNFB treated over DNFB untreated contralateral ear. The impact of the test compound was further assessed by comparing its mean impact on the animals of the treatment group to the response generated by the appropriate vehicle only.

The subject of data set [1] is BALB/c inbred female mice. The data set is described as follows: ConA induced liver injury. It is filed as in vivo, mouse. As to conditions: 1 mg/kg i.v., 8 hours of ConA treatment. Here is the method:
Each experimental group contains at least 5 BALB/c inbred female mice (25 g average weight, Harlan, Israel). The negative control group is composed of mice injected with saline instead of ConA. The injection of ConA (Sigma) is done i.v. at the base of the tail at the dose of 10 mg/kg in saline. The treatments are injected i.v. at 1 mg/kg, 30 minutes prior to the ConA injection. Compounds are dissolved in CREMOPHOR EL®:ethanol and vehicle only was included as an internal control.
Impact of treatment is monitored at three levels. First, blood samples (200-400 μl) are collected at predetermined time points alter ConA injection, using retro-orbital puncture. After short centrifugation (5000 rpm for 2 min) serum is recovered and stored at −80° C. until further use for determination of cytokines levels by ELISA and aminotransferase leakage from the liver as a marker for liver injury. In parallel, the level of cytokines, or other inflammatory mediators, is also determined in the organs of interests. For this purpose, the mice are killed by dislocation of the cervical vertebrae, at predetermined time points following ConA injection. […] Cells are incubated for 24 hours and cytokine levels in the supernatant are determined by ELISA as previously described.
The effect of compound A on liver injury was assessed by measuring the level of ALT in the plasma following 8 hours of ConA treatment. […]

A further data set concerns Male ICR mice. The data set is described as follows: Rotarod locomotor ability. It is filed as in vivo, mouse. Conditions: 10 mg/kg i.p. The protocol:
The effect of test compounds on overall locomotor ability was assessed in a second experimental setup, where the animals were submitted to a functional test using the rotarod apparatus as described by Rozas et al. (Rozas G. et al., J. of Neuroscience Methods 83: 165-75, 1998). The animals, male ICR mice (average body weight 40 g, Harlan, Israel), were trained for 4 days before beginning the experiment. Their task was to stay on the accelerating rod without falling for 12 minutes (3 minutes at each speed). The tested speeds were: 15, 19, 23 and 27 rpm. Animal performance on the rod was scored as follows: each animal could obtain a maximum of 3 points (1 for each minute) for full walking on the rod at each speed. Therefore, an animal could get a maximum score of 12 points (3 for each speed). Catching the circling beam of the rod without walking subtracted 0.5 points for every 3 circles circled by the animal. […] After proper training, at least 6 animals per group were administered i.p. with various doses of test compounds and controls, at volume dose of 5 ml/kg. Score was determined in the rotarod apparatus at time zero prior to compound injection and 30 minutes, 3 and 24 hours after compound or vehicle administration.
Results are expressed as mean±SD and the differences between vehicle and treatments are compared by ANOVA, followed by post-hoc Tukey's test. […] This effect disappeared at later time points with average scores of 9.7 and 11.9 at 3 and 24 hours respectively.
(The rotarod test checks motor coordination on a turning rod.)

The test system of data set [2] is IL-1β secretion from activated RAW 264.7 macrophages. The data set can be described thus: Inhibition of IL-1β in LPS activated macrophages (ELISA). Conditions: Mus musculus, RAW264.7, 24 h, read-out: inhibition of IL-1β secretion. The format is cell-based. The protocol: The technique used to quantify the amount of a given protein in a liquid sample, either tissue culture supernatant or body fluid, is based on Enzyme Linked ImmunoSorbent Assay (ELISA) methodology. Either commercially available or established in house, the assay is based on the capture of the protein of interest by specific antibodies bound to the bottom of an ELISA plate well. […] Again the unbound material is washed away, the samples are then incubated with the appropriate substrate yielding a calorimetric reaction. The reaction is stopped and reading is performed in a spectrophotometer at the appropriate wavelength. Samples are tested at least in duplicate and the appropriate standard curve, consisting of serial dilutions of the recombinant target protein, is incorporated on each plate. Concentration of the protein in the sample is calculated from the standard curve.
RAW 264.7 macrophages, a mouse cell line (ATCC # TIB-71), were grown in Dulbecco's modified Eagle's medium (DMEM) with 4 mM L-glutamine adjusted to contain 1.5 g/L sodium bicarbonate, 4.5 g/L glucose, and 10% heat inactivated fetal bovine serum. Cells were grown in tissue culture flasks and seeded at appropriate density into 24 wells tissue culture plates. 0.5×10^6 Raw cells in one milliliter were stimulated with 2 μg/ml Lipopolysaccharide E. coli 055:B5 (DIFCO Laboratories). The mouse macrophages were pre-treated for one hour with controls or 10 μM of bicyclic CB2 ligands and later on activated with LPS. Dexamethasone was used as a positive control at 50 nM. Supernatant was collected 4 hours (for PGE2) and 24 hours (for IL-1β and TNF-α) after activation, and the levels of the inflammatory agent under study were determined by ELISA, as previously described. Inhibition was calculated versus vehicle treated cells.
(In general: In an ELISA, binding on a coated surface is turned into a signal by an enzyme label.)

Take `CCCCCCC(C)(C)c1cc(OC)c(C2C=C(CO)C3CC2C3(C)C)c(OC)c1` (single isomer, unassigned; (+)) [HU-308, (+) {4-[4-(1,1-dimethylheptyl)-2,6-dimethoxy-phenyl]-6,6-dimethyl-bicyclo[3.1.1]hept-2-en-2-yl}-methanol, reference compound]: in the data set on Adult female BALB/c mice, the “calculated IC50 reduction in ear thickness” value is listed as 4.8 mg/kg. In addition, the “maximal inhibition (reduction in ear thickness)” value in the data set on Adult female BALB/c mice (doses 0 to 15 mg/kg, 24 hours after challenge) is given as around 60%.

As a reminder, the inhibition is the relative decrease from the control value, in per cent. In the case of `CCCCCCC(C)(C)c1cc(O)c(C2CC(=O)C3CC2C3(C)C)c(O)c1` (single isomer, unassigned; (-)) [Compound A, (−)-4-[4-(1,1-Dimethyl-heptyl)2,6-dihydroxy-phenyl]-6,6-dimethyl-bicyclo[3.1.1)heptan-2-one], the “decrease in ALT in the plasma” value in data set [1] stood at 65%. Also, the rotarod average score in the data set with Male ICR mice (3 hours) is on record as 9.7; in the data set on Male ICR mice (24 hours) it was 11.9; in the data set on Male ICR mice (thirty minutes, maximal score 12), 5.6. Besides, the inhibition at 10 µM in data set [2] amounted to 76%.
